Assay results reported in US20210395305A1, “PEPTIDE FOR COSMETIC APPLICATION” (COLOSSEUM COMBINATORIAL CHEMISTRY CENTRE FOR TECHNOLOGY …, priority 2018, published 2021).
Like-named read-outs stand apart in the source and are kept apart here. Ends that are not written are not given here.

How the values were obtained:
[1] = target: T1, NGF receptors, TrkA and p75 (Rattus norvegicus, UniProt P35739); test: PC12-Luci c-fos promoter luciferase reporter assay; type: cell-based; details: for Ec50 (luminescence): PC12-Luci cells, 4 h at 37° C.
T1 construct: PC12-Luci cells, which endogenously express the NGF receptors, TrkA and p75; endogenous in cells; host or cells: PC12-Luci (rat pheochromocytoma clone B9 with the human c-fos promoter-luciferase reporter)
Excerpt: NGF treatment of rat pheochromocytoma cell line (PC12) results in c-fos mRNA and protein expression (J. Milbrandt, “Nerve growth factor rapidly induces c-fos mRNA in PC12 rat pheochromocytoma cells”, Proc Natl Acad Sci USA. 1986 July; 83(13):4789-93).
Starting from the work of Milbrandt, the Applicant monitored the activation of NFG receptor by using a clone (B9) stably transfected with the human c-fos promoter driving a luciferase reporter gene (PC12-Luci). This clone was used to set up a functional and quantitative assay for the characterization of the activity of NGF1-14.
The experiments were performed in PC12-Luci cells, which endogenously express the NGF receptors, TrkA and p75. Cells were maintained in the following complete culture medium comprising: • DMEM-F12 mixture (DMEM-F12 Glutamax; Life Technologies, GIBCO 10565-018) • 5% fetal bovine serum (FBS, Sigma Aldrich, F7524) • 10% horse serum (HS, Sigma Aldrich, H1138) • 1% penicillin-streptomycin (Life Technologies, GIBCO 15140-122)
For passaging, cells were gently washed with PBS and then incubated with trypsin for 5 min at room temperature or 37° C. Media was added and cells were resuspended (6-8 times).
Experiments were performed in sestuplicate, in black 96 well previously coated with 50 μg/ml collagen type I.
PC-12-Luci cells were seeded at 25000/well in 100 μl complete growth medium. 24h later, cell medium was carefully removed. Cells were then incubated with five concentrations (range 30 ng/ml-300 μg/ml, 1:10 serial dilutions) of NGF1-14 in standard Tyrode buffer with 0.1% BSA (50 μl/well) for 4 h at 37° C. The reference Negermin™ compound (by MimeTech Srl) has been added at 30 μg/ml, as reference. The stock solution of NGF1-14 was resuspended in sterile water, aliquoted and stored at −20° C. The stock solution of Negermin™ compound was resuspended in formulation buffer and stored at −20° C.
After the incubation, the basal level of luminescence was monitored for 30 seconds, by using EnSpire multimode plate reader (PerkinElmer). Then, a Triton-Luciferin mix was added to cells (50 μl/well), in a 1:1 ratio, leading to cell lysis. The obtained luminescence signal was monitored for other 60 seconds. […]
All luminescence values were normalized versus the basal level of luminescence. The response value was calculated as the mean of luminescence of the kinetic recorded.
Data were further analyzed (e.g. calculation of dose-response curves and EC50 values) and graphs plotted using GraphPad Prism (GraphPad Software, Inc.). […]

[2] = Skin distribution of NGF1-14 gel preparation, HPLC-UV of epidermis and dermis extracts; type: in vivo, rat; details: 0.1% gel, following LFS, compared to vehicle
Procedure: Distribution experiments were carried out to evaluate the ability of NGF1-14 gel preparation to penetrate the corneal stratus and reach the dermis, also by using sonophoresis-like strategies to facilitate skin penetration.
Tape-striping and ultrasounds were applied on the shaved dorsal area of female adult Sprague Dawley (SD) rats (10-12 months).
Low-Frequency Sonophoresis (LFS) was applied using a Sonics Ultrasonic Processor Model VCX 400 operating at a frequency of 20 KHz (tip displacement of about 2 cm, continuous mode) for 6 or 10 minutes, according to common clinical practices, since a prolonged use of sonophoresis is known to increase skin permeation but also to a considerable thermal damage, which is not appropriate for the use (Ref. International Journal of Health Sciences & Research 477 Vol. 5; Issue: 5; May 2015: A Review on Ultrasound Parameters and Methods of Application in Transdermal Drug Delivery).
Vehicle control and NGF1-14 gel preparation were administered on the skin portion pre-treated with LFS (S) or on shaved/tape striping skin (NS).
Treatment was repeated after two hours, and rats were sacrificed to dissect skin samples 2 hours after the second gel/NGF mimetic application. […]
Quantification of NGF 1-14 was determined by HPLC-UV, on a reverse phase C4 column, eluting with phosphate buffer (pH 7.4) and acetonitrile. […]

[3] = system: TrkA; test: TrkA phosphorylation by Western Blot; type: in vivo, rat; details: dermis samples, with or without LFS, compared to vehicle controls; FIG. 4
[4] = system: pro-Collagen I; test: Pro-Collagen I in dermis by Elisa, single administration test; type: in vivo, rat
Procedure: (§1) Since the proteins of extracellular matrix collagen and elastin are involved in wound repair, skin aging and photo-aging, the effect of topical application of NGF1-14 on the levels of these two proteins was also analyzed.
(§2) Pro-Collagen I and Elastin were measured by using commercial Elisa kits, first in a single administration test, followed by a two weeks administration test.
(§3) A similar trend was observed by analyzing the two proteins: an increase of both pro-Collagen I (A) and Elastin (B) was detected in dermis of NGF1-14 treated rats at 0.1% dose, after sonication. The effect was less appreciable without applying the ultrasounds.
(§4) The protective action of NGF1-14 at 0.1% dose (P 0.1%) was evaluated on adult skin exposed to sub-erythematous levels of UV-B (MED=60 mJ/cm^2 twice a day) first in a single administration test (one day) then for three weeks before the treatment. This experimental procedure is also refereed as Photo-AGing model (PAG) since it induces structural and molecular changes occurring in aging.

[5] = system: Elastin; test: Elastin in dermis by Elisa, single administration test; type: in vivo, rat
Procedure: as §1, §2, §3, §4

[6] = system: normal human melanocytes; test: Tanning action: melanin content by ELISA; type: cell-based; details: cultured for a week, various concentrations
Procedure: The effect of topical application of NGF1-14 on the activation of melanocytes to produce melanin has been assessed.
According to already set up protocols, primary cell cultures of normal human melanocytes were seeded in Petri dishes and cultured for a week, with and without the presence of NGF 1-14 at various concentrations. The melanin content was measured by enzyme immunoassay ELISA.

[7] = pKa by potentiometric pH-metric titration (Sirius T3); type: physicochemical; details: 0.15 M KCl solution (ISA water), 25±1° C.
Procedure: Experimental pKa as well as partition and distribution coefficients (log P and log D) were determined using an automated potentiometric titrator Sirius T3 (Sirius Analytical Instruments Ltd., East Sussex, UK) equipped with an Ag/AgCl double junction reference pH electrode, a Sirius D-PAS spectrometer and a turbidity sensing device. The pH electrode was calibrated titrimetrically in the pH range 1.8-12.2. An overhead stirrer was used and a temperature probe monitored the temperature during the course of the titration. The titration experiments were conducted in 0.15 M KCl solution (ISA water) under an argon atmosphere at a temperature of 25±1° C. All tests were performed using standardized 0.5 M KOH and 0.5 M HCl as titration reagents, for the partition coefficient tests a saturated Octanol in ISA water (5% of ISA water) was used as partition solvent. The pKa is determined by potentiometric method by pH-metric titration. The powder (around 0.5 mg) was dissolved in 1.5 ml of ISA water and the titration was performed in triplicate in the pH range 2.0-12.0. Log P is performed in triplicate by dissolving the powder (around 0.7 mg) in 1 ml of ISA water followed by pH metric titration in three different percentage of Octanol (generally 50%, 60%, 70%). The predicted pKa and the calculated log P for the instrumental model was performed using ACD/Percepta.

[8] = without applying the ultrasounds

T1 sequence (P35739 33-799): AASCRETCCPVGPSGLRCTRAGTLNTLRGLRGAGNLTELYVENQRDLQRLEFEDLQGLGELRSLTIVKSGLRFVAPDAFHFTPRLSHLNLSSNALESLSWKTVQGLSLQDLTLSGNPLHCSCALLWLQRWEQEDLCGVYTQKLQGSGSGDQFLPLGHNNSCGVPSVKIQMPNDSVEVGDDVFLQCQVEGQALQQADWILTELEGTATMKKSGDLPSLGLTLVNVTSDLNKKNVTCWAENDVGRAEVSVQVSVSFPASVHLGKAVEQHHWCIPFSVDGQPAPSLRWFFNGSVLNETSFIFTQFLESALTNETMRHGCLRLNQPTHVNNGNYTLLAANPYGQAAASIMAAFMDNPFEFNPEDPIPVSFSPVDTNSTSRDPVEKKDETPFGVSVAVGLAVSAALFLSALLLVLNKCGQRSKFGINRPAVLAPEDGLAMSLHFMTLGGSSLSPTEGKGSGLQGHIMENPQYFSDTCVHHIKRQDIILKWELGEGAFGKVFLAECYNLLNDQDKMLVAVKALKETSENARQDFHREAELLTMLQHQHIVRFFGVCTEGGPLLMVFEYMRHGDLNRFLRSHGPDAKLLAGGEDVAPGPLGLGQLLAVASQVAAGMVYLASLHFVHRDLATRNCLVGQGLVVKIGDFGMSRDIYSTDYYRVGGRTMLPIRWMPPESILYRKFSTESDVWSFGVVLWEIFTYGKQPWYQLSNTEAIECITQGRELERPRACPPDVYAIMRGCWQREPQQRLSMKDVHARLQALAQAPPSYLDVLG

SSSHPIFHRGEFSV [NGF1-14, SSSHPIFHRGEFSV]
level of basal luminescence ([1]; 30 ng/ml-300 μg/ml, 4 h): increases the level of basal luminescence in a dose-dependent manner
in vitro potency compared with reference standard ([1]; Negermin™ compound added at 30 μg/ml): higher than reference standard Negermin™ compound, but lower than rhNGF
Ec50 (luminescence) [1]: 290.95 ng/mL
NGF1-14 level in epidermis ([2]; FIG. 3A): significant increase
NGF1-14 level in dermis ([2]; FIG. 3B): significant increase
phosphorylation levels of TrkA [3]: increased phosphorylation levels of TrkA
pro-Collagen I in dermis ([4]; 0.1% dose, after sonication, FIG. 5A): increase
Collagen I in dermis [4, 8]: comparable to the positive control value
Elastin in dermis ([5]; 0.1% dose, after sonication, FIG. 5B): increase
Elastin in dermis [5, 8]: slight increase
melanin content [6]: An increase was observed
pKa ([7]; read-out: Acid pKa): 4.42 ± 0.05
pKa ([7]; read-out: Base pKa): 7.41 ± 0.07

rhNGF: human recombinant NGF
Ec50 (luminescence) [1]: 1.4 ng/mL
